Legend:
[1] = system: immune cells enriched from spleens; assay: Immune cells from spleens of non-tumor-bearing mice; type: in vivo
Description: FIG. 13A is a box and whisker plot of relative median fluorescent intensity of surface XCR1 in CD45^+ cells of splenic DCs in PIKfyve inhibitor-treated non-tumor-bearing mice.
FIG. 13B is a box and whisker plot of cDC1 cells from spleens of mice treated with vehicle or apilimod, 30 mg/kg daily, after 5 days of treatment.
FIG. 18A is a series of nine scatter plots of the gating strategy for CD69^+ effector, naïve, terminally differentiated, resident memory, central memory, and exhausted CD8^+ T cells from spleens of non-tumor-bearing mice treated with vehicle or apilimod, 30 mg/kg daily, after 5 days of treatment.
FIG. 18H is a series of nine scatter plots of the gating strategy for FIG. 13A-B and FIG. 18I for myeloid cells and cDCs.

cDCs = assay: Phenotype of cultured cDCs (flow cytometry, western blot); type: cell-based, mice
Description: FIG. 13G (Left) is a line graph of the relative median fluorescent intensity of the surface MHC-I on DMSO or apilimod-treated cDCs treated for 20 hours after 6 days of culture. FIG. 13G (Right) is a box and whisker plot of the surface MHC-I on DMSO or apilimod-treated cDCs treated for 20 hours after 6 days of culture
FIG. 13H a western blot showing the total vinculin, loading control, and total MHC-I in DMSO or apilimod-treated, 20 hours, cDC lysates after 6 days of culture.
FIG. 13K (Left) is a line graph of the relative median fluorescent intensity of the surface MHC-II on DMSO or apilimod-treated, 20 hours, cDCs treated after 6 days of culture. FIG. 13K (Right) is a box and whisker plot of the surface MHC-II on DMSO or apilimod-treated, 20 hours, cDCs treated after 6 days of culture.
FIG. 13L a western blot showing the total vinculin, loading control, and total MHC-II in DMSO or apilimod-treated, 20 hours, cDC lysates after 6 days of culture.
FIG. 13N a western blot showing the total histone H3, loading control, and total CD80 and CD86 in apilimod-treated, 20 hours, PIKfyve WT vs. KO cDC lysates after 6 days of culture.
FIG. 13P is a series of six scatter plots of surface CD80 and CD86 on DMSO or apilimod-treated cDCs, with or without 20 hours of PolyI:C, 50 μg/ml, or lipopolysaccharide (LPS), 50 ng/ml, treatment after 6 days of culture.
FIG. 13R a western blot showing the total vinculin, loading control, and total CD40 in DMSO or apilimod-treated, 20 hours, cDC lysates treated with or without additional LPS, 50 ng/ml, after 6 days of culture day 6.
FIG. 19B is a line graph of representative density plot of median fluorescent intensity of surface XCR1 in DMSO or apilimod-treated, 20 hours, cDCs after 6 days of culture.
FIG. 26G is a line graph of the relative median fluorescent intensity of the surface MHC-I, H2-kb, H2-kd, on DMSO or apilimod-treated cDCs with or without PolyI:C, 50 μg/ml or LPS, 50 ng/ml, treatment, 20 hours, after 6 days of culture.
FIG. 26H is a line graph of the relative median fluorescent intensity of the surface MHC-II, MHC-IA-IE, on DMSO or apilimod-treated cDCs with or without PolyI:C, 50 μg/ml or LPS, 50 ng/ml, treatment, 20 hours, after 6 days of culture.

[2] = system: tumor infiltrating DCs in B16F10 tumors; assay: Tumor infiltrating DCs in B16F10 tumors of PIKfyve KO or WT mice; type: in vivo; conditions: for percentage of cDC1s: 30 mg/kg daily
Description: FIG. 15E is a box and whisker plot of the XCR1 median fluorescent intensity by % cDC1 subset in B16F10 tumor model treated with vehicle or apilimod, 30 mg/kg daily.
FIG. 15F is a series of three box and whisker plot of the XCR1 median fluorescent intensity by all DCs, cDC1 or cDC2 subset in PIKfyve KO mice or WT mice treated with vehicle or apilimod, 30 mg/kg daily.
FIG. 23F is a box and whisker plot of the % cDC2 of all DC cells in PIKfyve KO mice or WT mice treated with vehicle or apilimod, 30 mg/kg daily.
FIG. 23G is a series of three box and whisker plots of the SIRP1α median fluorescent intensity by all DC, cDC1 or cDC2 subset in PIKfyve KO mice or WT mice treated with vehicle or apilimod, 30 mg/kg daily.

[3] = system: subcutaneous B16F10 tumors; assay: Subcutaneous B16F10 tumor model; type: in vivo, mice
Description: FIG. 15D is a line graph of the subcutaneous tumor volume of B16F10 tumors in PIKfyve KO mice or WT mice treated with anti-PD1 antibody, 200 μg every 3 days, or isotype control after 15 days.
FIG. 16D is a line graph of the subcutaneous tumor volume of B16F10 tumors in mice treated with vehicle or apilimod, 30 mg/kg daily, in wild-type or Batf3^−/− mice.
FIG. 26E is a line graph of the subcutaneous tumor volume of B16F10 tumors in mice treated with vehicle or apilimod, 30 mg/kg daily, in NSG™ mice.
FIG. 26F is a line graph of the subcutaneous tumor volume of B16F10 tumors in mice treated with vehicle versus apilimod, 30 mg/kg daily, in NSG™ mice.

[4] = Overall comparison across preclinical models; type: in vivo; conditions: in many of models; dose of apilimod higher than ESK981
Text: This could be, at least partially, explained by the reported instability of apilimod See, e.g., Ikonomov, O. C. et al., Toxicol. Appl. Pharmacol. 2019; 383:114771.

[5] = 30 mg/kg daily, 5 days, vs vehicle

## Cc1cccc(/C=N/Nc2cc(N3CCOCC3)nc(OCCc3ccccn3)n2)c1 [apilimod, N-[(E)-(3-methylphenyl)methylideneamino]-6-morpholin-4-yl-2-(2-pyridin-2-ylethoxy)pyrimidin-4-amine]
[1]; [5]
  percentage of terminally differentiated, memory or exhausted CD8+ T cells: no changes
  proportions of CD69+CD8+ T cells: increased
  total surface expression of CD11c, F4/80, or CD11b: no change
  total surface expression of XCR1: increase
[1]; within the cDC subset
  relative percentage of cDC1s versus cDC2 cells: increase
cDCs; 20 hours
  surface and total protein expression of MHC-II: increased
cDCs; DCs in vitro, each agent
  MHC-I and MHC-II expression: stimulated
cDCs; WT DCs, in a dose-dependent manner
  CD80 and CD86 expression: induced
cDCs; added to LPS treatment, vs DMSO
  total expression of CD40: increased
cDCs; alone and in combination with PolyI:C and LPS
  CD80+CD86+ cDCs: increase
cDCs; apilimod added to PolyI:C or LPS
  MHC-I and MHC-II expression: further enhanced
cDCs; cDCs from WT mice, 20 hours
  surface and total protein expression of MHC-I: increased
cDCs; cultured cDCs, 20 hours, vs DMSO
  total surface expression of XCR1: increase
[2]; KO mice
  percentage of cDC1s: no additional increase
[2]; WT and KO mice
  total surface XCR1 expression, differences between groups compared with cDC1 percentage: the same
[2]; WT mice
  percentage of cDC1s: increased
[2]; between any groups
  percentage of cDC2s or total surface SIRP1α expression: no changes
[3]; Batf3−/− mice
  efficacy in Batf3−/− mice: lost
[3]; NSG mice
  efficacy in NSG mice: lost
[3]; WT, non-transgenic mice, vs vehicle
  B16F10 tumor growth: reduced
[4]
  efficacy relative to ESK981: weaker than ESK981

From patent publication US20250144107A1, “USE OF A PIKFYVE INHIBITOR IN COMBINATION WITH IMMUNOTHERAPY” (The Regents of the University of Michigan, priority 2023, published 2025)
